Measured values taken from patent US20240360157A1, “TYK2 INHIBITORS” (BIOGEN MA INC., priority 2021, published 2024).
Structures can show the parent of a compound that is named as a salt.

Assays:
Type in all cases: biochemical
[1] = target: human TYK2 catalytic kinase (JH1) domain (Homo sapiens (Human), UniProt P29597); test: ADP-Glo Kinase Assay, recombinant TYK2 catalytic kinase (JH1) domain; conditions: recombinant JH1 domain 2 nM, 10 μM ATP, JAK3-974 peptide, mean, read-out: TYK2 biochem IC50 (nM) Mean
Procedure: (§1) Compounds of the disclosure were assessed for their ability to inhibit TYK2, JAK1, JAK2, and JAK3 activity. The inhibitory properties of the compounds of the disclosure described herein can be evidenced by testing in any one of the following protocols.
(§2) The kinase activity of recombinantly generated catalytic kinase (also known as JH1) domain of human JAK1, JAK2, JAK3 and TYK2 were evaluated in a plate-based assay using the ADP-Glo™ Kinase Assay platform. Specifically, 4 nM of recombinant JAK1 kinase domain is used to phosphorylate 50 μM of a JAK3-342 (sequence ALVDGYFRLTT) peptide in the presence of 35 μM ATP. Catalytic activities of recombinant JAK2, JAK3 and TYK2 kinase domain (0.2, 0.3 and 2 nM, respectively) are evaluated by the phosphorylation status of the JAK3-974 (50 μM; sequence LPLDKDYYVVR) peptide with the addition of ATP (15, 4 and 10 μM, respectively). The reactions proceed for 100 minutes and the catalytic activity is quantified by first depleting the unused ATP, converting the hydrolyzed ADP into ATP to generate luminescence in a luciferase reaction; which is the basis of the ADP-Glo platform. Compounds are tested at either 10 μM or 1 μM top concentration, 11 points of 3-fold dilution. The data is normalized and the percent activity versus log concentration of compound is fitted with a 4-parameter logistic model to generate a curve and an IC50 value.

[2] = target: human JAK1 catalytic kinase (JH1) domain (Homo sapiens (Human), UniProt P23458); test: ADP-Glo Kinase Assay, recombinant JAK1 catalytic kinase (JH1) domain; conditions: recombinant JH1 domain 4 nM, 35 μM ATP, JAK3-342 peptide, mean, read-out: JAK1 biochem IC50 (nM) Mean
Procedure: as §1, §2

[3] = target: human JAK2 catalytic kinase (JH1) domain (Homo sapiens (Human), UniProt O60674); test: ADP-Glo Kinase Assay, recombinant JAK2 catalytic kinase (JH1) domain; conditions: recombinant JH1 domain 0.2 nM, 15 μM ATP, JAK3-974 peptide, mean, read-out: JAK2 biochem IC50 (nM) Mean
Procedure: as §1, §2

[4] = target: human JAK3 catalytic kinase (JH1) domain (Homo sapiens (Human), UniProt P52333); test: ADP-Glo Kinase Assay, recombinant JAK3 catalytic kinase (JH1) domain; conditions: recombinant JH1 domain 0.3 nM, 4 μM ATP, JAK3-974 peptide, mean, read-out: JAK3 biochem IC50 (nM) Mean
Procedure: as §1, §2

Sequence of human TYK2 catalytic kinase (JH1) domain (P29597 897-1176): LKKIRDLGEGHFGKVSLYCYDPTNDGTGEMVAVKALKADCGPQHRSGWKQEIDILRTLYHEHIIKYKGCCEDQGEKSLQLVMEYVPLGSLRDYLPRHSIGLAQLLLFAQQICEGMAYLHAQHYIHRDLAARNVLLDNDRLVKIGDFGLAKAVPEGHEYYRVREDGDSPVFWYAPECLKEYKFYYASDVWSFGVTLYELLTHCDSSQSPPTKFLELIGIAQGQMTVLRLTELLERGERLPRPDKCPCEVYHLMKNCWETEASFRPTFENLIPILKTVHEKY
Sequence of human JAK1 catalytic kinase (JH1) domain (P23458 875-1153): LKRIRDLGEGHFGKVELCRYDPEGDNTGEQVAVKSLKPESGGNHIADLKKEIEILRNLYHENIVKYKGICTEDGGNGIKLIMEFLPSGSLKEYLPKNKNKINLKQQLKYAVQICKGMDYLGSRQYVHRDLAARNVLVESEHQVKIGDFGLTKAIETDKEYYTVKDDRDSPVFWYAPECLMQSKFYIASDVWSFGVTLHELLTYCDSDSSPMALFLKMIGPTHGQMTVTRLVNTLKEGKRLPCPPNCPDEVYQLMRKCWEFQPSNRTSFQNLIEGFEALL
Sequence of human JAK2 catalytic kinase (JH1) domain (O60674 849-1124): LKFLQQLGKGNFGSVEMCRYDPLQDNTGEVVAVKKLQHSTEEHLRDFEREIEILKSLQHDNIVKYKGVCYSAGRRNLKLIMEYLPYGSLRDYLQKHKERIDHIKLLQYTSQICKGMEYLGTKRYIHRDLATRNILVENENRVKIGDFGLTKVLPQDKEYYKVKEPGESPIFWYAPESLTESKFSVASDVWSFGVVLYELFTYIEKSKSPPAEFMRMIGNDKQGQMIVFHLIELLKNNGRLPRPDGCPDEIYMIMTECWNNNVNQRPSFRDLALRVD
Sequence of human JAK3 catalytic kinase (JH1) domain (P52333 822-1111): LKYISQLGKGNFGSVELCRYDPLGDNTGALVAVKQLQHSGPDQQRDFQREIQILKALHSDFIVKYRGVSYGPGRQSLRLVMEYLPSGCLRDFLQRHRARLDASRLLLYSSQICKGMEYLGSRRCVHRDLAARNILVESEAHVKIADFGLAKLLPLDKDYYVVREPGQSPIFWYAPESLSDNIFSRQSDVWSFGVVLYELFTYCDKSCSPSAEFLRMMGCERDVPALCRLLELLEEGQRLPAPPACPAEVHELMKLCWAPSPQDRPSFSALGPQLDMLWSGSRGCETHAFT

Structure (SMILES)	IC50 [1] [nM]	IC50 [2] [nM]	IC50 [3] [nM]	IC50 [4] [nM]
O=C([C@@H]1C[C@H]1F)N1C2CCC1CN(c1ccnn3cc(-c4ccnnc4)cc13)C2 [Example 109, ((1S,2R)-2-fluorocyclopropyl)(3-(6-(pyridazin-4-yl)pyrrolo[1,2-b]pyridazin-4-yl)-3,8-diazabicyclo[3.2.1]octan-8-yl)methanone]	3.2	38	45	847
Cn1cc(-c2cc3c(N4CC5CCC(C4)N5C(=O)[C@@H]4C[C@H]4F)ccnc3[nH]2)c(F)n1 [Example 244, (3-(2-(3-fluoro-1-methyl-1H-pyrazol-4-yl)-1H-pyrrolo[2,3-b]pyridin-4-yl)-3,8-diazabicyclo[3.2.1]octan-8-yl)((1S,2R)-2-fluorocyclopropyl)methanone]	0.2	18	4	73
COc1nccc(-c2cc3c(N4CC5CCC(C4)N5C(=O)[C@@H]4C[C@H]4F)ccnc3[nH]2)c1F [Example 247, ((1S,2R)-2-fluorocyclopropyl)(3-(2-(3-fluoro-2-methoxypyridin-4-yl)-1H-pyrrolo[2,3-b]pyridin-4-yl)-3,8-diazabicyclo[3.2.1]octan-8-yl)methanone]	1.4	40	18	168
Cn1cc(-c2cc3c(N4CC5CCC(C4)N5C(=O)[C@H]4CC4(F)F)ncnn3c2)cn1 [Example 84, ((R)-2,2-difluorocyclopropyl)(3-(6-(1-methyl-1H-pyrazol-4-yl)pyrrolo[2,1-f][1,2,4]triazin-4-yl)-3,8-diazabicyclo[3.2.1]octan-8-yl)methanone]	55	1800	1220	6890
COc1nn(C)cc1-c1cc2c(N3CC4CCC(C3)N4C(=O)[C@@H]3C[C@H]3F)ccnn2c1 [Example 134, ((1S,2R)-2-fluorocyclopropyl)(3-(6-(3-methoxy-1-methyl-1H-pyrazol-4-yl)pyrrolo[1,2-b]pyridazin-4-yl)-3,8-diazabicyclo[3.2.1]octan-8-yl)methanone]	1.4	114	24	588
O=C(N1C2CCC1CN(c1ncnn3cc(-c4cnn(C(F)F)c4)cc13)C2)C1(C(F)(F)F)CC1 [Example 45, (3-(6-(1-(difluoromethyl)-1H-pyrazol-4-yl)pyrrolo[2,1-f][1,2,4]triazin-4-yl)-3,8-diazabicyclo[3.2.1]octan-8-yl)(1-(trifluoromethyl)cyclopropyl)methanone]	988	7300	9490	6010
O=C(C1CC1)N1C2CCC1CN(c1ncnn3cc(-c4cccnc4)cc13)C2 [Example 183]	557	3290	10000	8640
O=C(C1CC1)N1C2CCC1CN(c1ncnn3cc(-c4ccc(Cl)nc4)cc13)C2 [Example 179]	684	5400	10000	9270
O=C([C@@H]1C[C@H]1F)N1C2CCC1CN(c1ncnn3cc(-c4cnn(C(F)F)c4)cc13)C2 [Example 1, (3-(6-(1-(difluoromethyl)-1H-pyrazol-4-yl)pyrrolo[2,1-f][1,2,4]triazin-4-yl)-3,8-diazabicyclo[3.2.1]octan-8-yl)((1S,2R)-2-fluorocyclopropyl)methanone]	9	228	315	1300
CN(C)c1ccc(-c2cc3c(N4CC5CCC(C4)N5C(=O)[C@@H]4C[C@H]4F)ncnc3[nH]2)cn1 [Example 226, (3-(6-(6-(dimethylamino)pyridin-3-yl)-7H-pyrrolo[2,3-d]pyrimidin-4-yl)-3,8-diazabicyclo[3.2.1]octan-8-yl)((1S,2R)-2-fluorocyclopropyl)methanone]	14.9	116	244	468
Cc1cc(-c2cc3c(N4CC5CCC(C4)N5C(=O)[C@@H]4C[C@H]4F)ncnc3[nH]2)ccn1 [Example 230, ((1S,2R)-2-fluorocyclopropyl)(3-(6-(2-methylpyridin-4-yl)-7H-pyrrolo[2,3-d]pyrimidin-4-yl)-3,8-diazabicyclo[3.2.1]octan-8-yl)methanone]	8.2	91	218	742
N#CCC(=O)N1C2CCC1CN(c1ncnn3cc(-c4cnn(C(F)F)c4)cc13)C2 [Example 44, 3-(3-(6-(1-(difluoromethyl)-1H-pyrazol-4-yl)pyrrolo[2,1-f][1,2,4]triazin-4-yl)-3,8-diazabicyclo[3.2.1]octan-8-yl)-3-oxopropanenitrile]	236	395	4180	5390
Cn1cc(-c2cc3c(N4CC5CCC(C4)N5C(=O)[C@@H]4C[C@H]4F)ccnn3c2)cn1 [Example 159, ((1S,2R)-2-fluorocyclopropyl)(3-(6-(1-methyl-1H-pyrazol-4-yl)pyrrolo[1,2-b]pyridazin-4-yl)-3,8-diazabicyclo[3.2.1]octan-8-yl)methanone]	1.1	51	30	263
COc1cc(-c2nc3c(N4CC5CCC(C4)N5C(=O)[C@@H]4C[C@H]4F)ccnc3[nH]2)ccn1 [Example 203, ((1S,2R)-2-fluorocyclopropyl)(3-(2-(2-methoxypyridin-4-yl)-3H-imidazo[4,5-b]pyridin-7-yl)-3,8-diazabicyclo[3.2.1]octan-8-yl)methanone]	7	19	42	578
Cn1cc(-c2cc3c(N4CC5CCC(C4)N5S(=O)(=O)[C@@H]4CC4(F)F)ccnn3c2)cn1 [Example 198, 4-(8-(((R)-2,2-difluorocyclopropyl)sulfonyl)-3,8-diazabicyclo[3.2.1]octan-3-yl)-6-(1-methyl-1H-pyrazol-4-yl)pyrrolo[1,2-b]pyridazine]	15.1	266	95	652
N#CC1(C(=O)N2C3CCC2CN(c2ncnn4cc(-c5cnn(C(F)F)c5)cc24)C3)CC1 [Example 30, 1-(3-(6-(1-(difluoromethyl)-1H-pyrazol-4-yl)pyrrolo[2,1-f][1,2,4]triazin-4-yl)-3,8-diazabicyclo[3.2.1]octane-8-carbonyl)cyclopropane-1-carbonitrile trifluoroacetate]	90	191	938	820
CNc1cc(-c2nc3c(N4CC5CCC(C4)N5C(=O)[C@@H]4C[C@H]4F)ccnc3[nH]2)ccn1 [Example 217, ((1S,2R)-2-fluorocyclopropyl)(3-(2-(2-(methylamino)pyridin-4-yl)-3H-imidazo[4,5-b]pyridin-7-yl)-3,8-diazabicyclo[3.2.1]octan-8-yl)methanone]	0.4	3	8	107
Cn1cc(-c2cc3c(N4CC5CCC(C4)N5C(=O)[C@H]4C[C@H]4C#N)ncnn3c2)cn1 (single isomer, unassigned) [Example 85]	751	3310	10000	4450
